From patent US20060111289A1, “Compositions and methods of using Alpha-fetoprotein growth inhibitory peptides” (Serometrix, LLC,, priority 2004, published 2006)
Where a SMILES comes first, the peptide text is derived from it.

Legend:
MCF-7 cells = test: Estrogen-dependent MCF-7 foci formation assay; format: cell-based, human; parameters: % Inhibition Of Activity: MCF-7 foci formation: concentration or dose not given beside the values
From the text: Mizejewski et al., “Alpha-fetoprotein derived synthetic peptides: assay of an estrogen-modifying regulatory segment” Mol Cell Endocrinol 118:15-23 (1996). The P149 peptide inhibited the formation of tumor cell foci formed as a result of the accumulation of breast cancer cells which clump together due to loss of contact inhibition.

[1] = test system: immature mouse uterine growth; test: E2-activated immature mouse uterine growth assay; format: in vivo; parameters: % Inhibition Of Activity: Uterine Growth: concentration or dose not given beside the values; settings: for Inhibition in the mouse uterine assay: linear versus cyclic configuration
Procedure: FIG. 3 presents exemplary data showing the growth suppressive activities of the oligomeric forms of P149, cyclic versus linear, are depicted in various in vitro and in vivo models. Biological activity was determined by three growth-dependent bioassays, namely; • Panel-A and A1) an immature rodent uterine bioassay; • Panel-B and B 1) an in vitro MCF-7 foci assay; • Panel-C and C1) an in vitro tumor cell cytostatic assessment. […] See text for details. Scrambled peptide=P327. […]

human platelets = test: Platelet aggregation in human platelet-rich plasma; format: cell-based; parameters: % Inhibition Of Activity: Platelet Agg. ADP / % Inhibition Of Activity: Platelet Agg. AA / % Inhibition Of Activity: Platelet Agg. Coll: concentration or dose not given beside the values
Procedure: FIG. 9 presents exemplary data showing platelet aggregation modulation using 0.5 ml of normal human platelet-rich plasma (PRP) with varying amounts of P149 or P 149b using 2.5×10^6 platelets per reaction vessel.
FIG. 10 presents exemplary data showing platelet aggregation activation by arachidonic acid (AA) and collagen using P149-treated platelet suspensions • Panel A1: AA alone; • Panel A2: AA followed by epinephine (EPI) and EPI alone using P149b; • Panel A3: CD62P flow cytometry fluorescence quenching by P149; • Panel B1: collagen alone and collagen+P149; • Panel B2: collagen alone; collagen+P149a showing aggregation diminution.
GIP-derived peptide fragments and/or subfragments have been assayed for platelet aggregation by measuring light transmissions with an aggregometer using a stirred human platelet suspension. Kinlough-Rathbone et al., In: Platelet Aggregation in Measurements of Platelet Function, Eds. Harker L A, Zimmerman T S., Churchill Livingstone, London. pp. 64-87 (1983); and Whittle et al., “Specificity between the anti-aggregatory actions of prostacyclin, prostaglandin Eland D2 on platelets” In: Mechanisms of stimulus—response coupling in platelets, Eds. V. V. K., MacIntyre D E, Scully M F., New York and London: Plenum Press. pp. 109-115 (1985).
The ability of GIP and its fragments were individually examined for aggregation inhibition using citrated human platelet-rich plasma (PRP). The peptides were freshly dissolved in 0.15 M NaCl containing 2.5×10^6 platelets/ml. […]

Estrogen fetotoxicity = test: Estrogen fetotoxicity; parameters: concentration or dose not given beside the values; settings: in vivo
MCF-7 and GI-101 cells = test: ATP luminescence cytostatic assay (6 days); format: cell-based, human; settings: peptide 10^−12 to 10^−8 M
From the text: FIG. 2 presents exemplary data for both in vivo and in vitro growth suppressive activities of the GIP-derived P149 and control peptides are depicted in GI-101 human ductal breast carcinoma and in MCF-7 human glandular breast carcinoma. • Panels A and A2: GI-101 and MCF-7 xenograft in nude mice administered P149 time-release pellets for 60 days and 30 days, respectively (N=5 mice/group). • Panels B and B2: GI-101 and MCF-7 in cell cultures treated with P149 and P187 at concentrations from 10-8 to 10-12 M for 6 days and assayed by ATP luminescence reagent employing a luciferin-luciferase system. The ATP assay, used to distinguish between cytostasis versus cytotoxicity, was used to confirm that P149 was cytostatic in its cell inhibitory activity at 6 days (see text for details).
In order to confirm whether P149 was indeed cytostatic, and not cytotoxic, an ATP-based cytostatic assay was performed which measures the decrease in cytosolic ATP during drug (i.e., for example, GIP peptide) treatment. This ATP luminescence assay has long been employed to distinguish between cytostatic versus cytotoxic chemotherapeutic sensitivity of drugs. […] After incubation of the cell cultures for 6 days, cytosolic ATP was extracted, stabilized, and quantitated from a standard curve produced from Berthold LB-96P luminometer readings using a luciferin-luciferase counting reagent.

Molecule | Inhibition in the MCF-7 foci-assay (MCF-7 cells; linear versus cyclic configuration) | Inhibition in the mouse uterine assay [1] | Inhibition in the mouse uterine assay ([1]; listed as cyclic peptide) | % Inhibition Of Activity: MCF-7 foci formation (MCF-7 cells) [%] | % Inhibition Of Activity: Platelet Agg. ADP (human platelets; ADP-induced) [%] | % Inhibition Of Activity: Platelet Agg. AA (human platelets; arachidonic acid-induced) [%] | % Inhibition Of Activity: Platelet Agg. Coll (human platelets; collagen-induced) [%] | Inhibition (%) Of Platelet Aggregation, Adenosine Diphosphate (ADP) 2.5 μM (human platelets; peptide inhibitors 30 & 100 μM) | Inhibition (%) Of Platelet Aggregation, Arachidonic Acid (AA) 0.3 mM (human platelets; peptide inhibitors 30 & 100 μM) | Inhibition (%) Of Platelet Aggregation, Collagen (COLL) 2 μg/ml (human platelets; peptide inhibitors 30 & 100 μM) | Inhibition (%) Of Platelet Aggregation, Epinephrine (human platelets; peptide inhibitors 30 & 100 μM) | % Inhibition Of Activity: Uterine Growth ([1]; mouse, in vivo) [%] | % Inhibition Of Activity: Estrogen Fetotoxicty (Estrogen fetotoxicity) [%] | Growth inhibition / decrease in cytosolic ATP in the ATP luminescence assay (MCF-7 and GI-101 cells)
CC[C@H](C)[C@H](NC(=O)[C@@H]1CSSC[C@H](NC(=O)[C@H](C)NC(=O)[C@H](CC(C)C)NC(=O)[C@H](CC(C)C)NC(=O)[C@H](CCCCN)NC(=O)[C@H](CC(=O)O)NC(=O)[C@H](CCC(=O)O)NC(=O)[C@H](CO)NC(=O)[C@@H](N)CC(C)C)C(=O)NCC(=O)N[C@@H](CCC(=O)O)C(=O)NCC(=O)N[C@@H](C)C(=O)N[C@@H](C)C(=O)N[C@@H](CC(=O)O)C(=O)N[C@@H]([C@@H](C)CC)C(=O)N[C@@H]([C@@H](C)CC)C(=O)N[C@@H]([C@@H](C)CC)C(=O)NCC(=O)N[C@@H](Cc2c[nH]cn2)C(=O)N[C@@H](CC(C)C)C(=O)N1)C(=O)N[C@@H](CCCNC(=N)N)C(=O)N[C@@H](Cc1c[nH]cn1)C(=O)N[C@@H](CCC(=O)O)C(=O)N[C@@H](CCSC)C(=O)N[C@H](C(=O)N1CCC[C@H]1C(=O)N[C@H](C(=O)N[C@@H](CC(N)=O)C(=O)N1CCC[C@H]1C(=O)NCC(=O)N[C@H](C(=O)O)C(C)C)C(C)C)[C@@H](C)O [Cyclic GIP] (HELM PEPTIDE1{L.S.E.D.K.L.L.A.C.G.E.G.A.A.D.I.I.I.G.H.L.C.I.R.H.E.M.T.P.V.N.P.G.V}$PEPTIDE1,PEPTIDE1,9:R3-22:R3$$$V2.0; N-terminus and C-terminus assumed) | 20-25% | 20-25% | only marginally inhibitory | – | – | – | – | – | – | – | – | – | – | –
KDFIHKQGVALQTMKQELINLVKELVKPQIEAVADFSGLL (listed as Homo sapiens) [P192, reference compound] | – | – | – | 0 | 0 | 0 | 0 | No effect | No effect | No effect | No effect | 0 | 0 | not significantly different from the non-treated control
